Assay [1] relates to MG RNA aptamer (malachite green RNA aptamer) (RNA, aptamer) GGAUCCCGACUGGCGAGAGCCAGGUAACGAAUGGAUCC
Description: fluorescence titration, Hill fit n = 1. The conditions noted are these: 100 mM KCl, 1 mM Mg-citrate; 10 mM HEPES, 0.2 M bicine, pH 8.5, room temperature; no vesicles.

The test system of assay [2] is MG aptamer construct for SHAPE (MG aptamer SHAPE construct) (RNA, aptamer) GGGCCUUCGGGCCAAGGAUCCCGACUGGCGAGAGCCAGGUAACGAAUGGAUCCUCGAUCCGGUUCGCCGGAUCCAAAUCGGGCUUCGGUCCGGUUC
Put plainly: SHAPE (NMIA), A30/A31 band ratio, Boltzmann fit. Particulars: 100 mM KCl, 1 mM Mg-citrate; bicine pH 8.5; RNA outside empty myristoleic acid vesicles; MG incubation room temperature, NMIA 10 °C; apparent.

Drawing on publication PMC5998061 (2018), this text covers KD and midpoint for one compound.

In turn, `CN(C)c1ccc(C(=C2C=CC(=[N+](C)C)C=C2)c2ccccc2)cc1` came in with a KD in assay [1] of 2.5 ± 0.4 µM. Also, the midpoint in assay [2] is 6.1 ± 0.7 µM.

The KD is the equilibrium constant for the complex coming apart. Low values mean tighter binding, high ones weaker binding.
